Data as given in patent US20160287589A1, “SUBSTITUTED-IMIDAZOPYRIDAZINES” (BAYER PHARMA AKTIENGESELLSCHAFT, priority 2013, published 2016).
pIC50: −log10 of the molar value.

What was measured:
MKNK1 [1] = target: T1, MKNK1 (Homo sapiens, UniProt Q9BUB5, T385D); assay: MKNK1 kinase high ATP assay (TR-FRET-based); format: biochemical; details: Table 2a; 2 mM ATP, 15 min preincubation
T1 construct: GST (N); purchased Carna Biosciences 02-145; host or cells: insect cells (baculovirus expression system)
T1 sequence (Q9BUB5 1-424 isoform Q9BUB5-2 T344D): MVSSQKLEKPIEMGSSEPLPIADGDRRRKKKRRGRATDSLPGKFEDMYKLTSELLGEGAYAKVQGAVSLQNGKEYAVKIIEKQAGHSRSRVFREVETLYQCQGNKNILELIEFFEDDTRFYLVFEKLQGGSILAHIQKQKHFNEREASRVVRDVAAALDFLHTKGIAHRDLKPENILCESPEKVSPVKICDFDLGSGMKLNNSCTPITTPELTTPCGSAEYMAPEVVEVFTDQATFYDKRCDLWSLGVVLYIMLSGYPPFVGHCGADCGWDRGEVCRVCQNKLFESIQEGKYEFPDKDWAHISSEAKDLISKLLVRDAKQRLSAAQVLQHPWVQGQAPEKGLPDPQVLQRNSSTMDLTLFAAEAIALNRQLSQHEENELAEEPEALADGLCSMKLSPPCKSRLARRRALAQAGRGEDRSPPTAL
Description: MKNK1 Kinase High ATP Assay
MKNK1-inhibitory activity at high ATP of compounds of the present invention after their preincubation with MKNK1 was quantified employing the TR-FRET-based MKNK1 high ATP assay as described in the following paragraphs.
(§1) A recombinant fusion protein of Glutathione-S-Transferase (GST, N-terminally) and human full-length MKNK1 (amino acids 1-424 and T344D of accession number BAA 19885.1), expressed in insect cells using baculovirus expression system and purified via glutathione sepharose affinity chromatography, was purchased from Carna Biosciences (product no 02-145) and used as enzyme. As substrate for the kinase reaction the biotinylated peptide biotin-Ahx-IKKRKLTRRKSLKG (C-terminus in amide form) was used, which can be purchased e.g. from the company Biosyntan (Berlin-Buch, Germany).
(§2) For the assay 50 nL of a 100 fold concentrated solution of the test compound in DMSO was pipetted into a black low volume 384 well microtiter plate (Greiner Bio-One, Frickenhausen, Germany), 2 μL of a solution of MKNK1 in aqueous assay buffer [50 mM HEPES pH 7.5, 5 mM magnesium chloride, 1.0 mM dithiothreitol, 0.005% (v/v) Nonidet-P40 (Sigma)] was added and the mixture was incubated for 15 min at 22° C. to allow pre-binding of the test compounds to the enzyme before the start of the kinase reaction. Then the kinase reaction was started by the addition of 3 μL of a solution of adenosine-tri-phosphate (ATP, 3.3 mM=>final conc. in the 5 μL assay volume is 2 mM) and substrate (0.1 μM=>final conc. in the 5 μL assay volume is 0.06 μM) in assay buffer and the resulting mixture was incubated for a reaction time of 30 min at 22° C. The concentration of MKNK1 was adjusted depending of the activity of the enzyme lot and was chosen appropriate to have the assay in the linear range, typical concentrations were in the range of 0.003 μg/mL. The reaction was stopped by the addition of 5 μL of a solution of TR-FRET detection reagents (5 nM streptavidine-XL665 [Cisbio Bioassays, Codolet, France] and 1 nM anti-ribosomal protein S6 (pSer236)-antibody from Invitrogen [#44921G] and 1 nM LANCE EU-W1024 labeled ProteinG [Perkin-Elmer, product no. AD0071]) in an aqueous EDTA-solution (100 mM EDTA, 0.1% (w/v) bovine serum albumin in 50 mM HEPES pH 7.5).
(§3) The resulting mixture was incubated for 1 h at 22° C. to allow the formation of complex between the phosphorylated biotinylated peptide and the detection reagents. Subsequently the amount of phosphorylated substrate was evaluated by measurement of the resonance energy transfer from the Eu-chelate to the streptavidine-XL. Therefore, the fluorescence emissions at 620 nm and 665 nm after excitation at 350 nm were measured in a TR-FRET reader, e.g. a Rubystar (BMG Labtechnologies, Offenburg, Germany) or a Viewlux (Perkin-Elmer). The ratio of the emissions at 665 nm and at […] was taken as the measure for the amount of phosphorylated substrate. The data were normalised (enzyme reaction without inhibitor=0% inhibition, all other assay components but no enzyme=100% inhibition).

MKNK1 [2] = target: T1, MKNK1; assay: MKNK1 kinase assay (MKNK1 TR-FRET assay); format: biochemical; details: Table 1a; 10 μM ATP, 15 min preincubation
Excerpt: MKNK1-inhibitory activity of compounds of the present invention was quantified employing the MKNK1 TR-FRET assay as described in the following paragraphs.
as §1, with “human full-lengt” for “human full-length”, “was used” for “was used,”, “e.g. form” for “e.g. from”
as §2, with “Then the kinase reaction was started by the addition of 3 μL of a solution of adenosine-tri-phosphate (ATP, 3.3 mM=>final conc. in the 5 μL assay volume is 2 mM) and substrate (0.1 μM=>final conc. in the 5 μL assay volume is 0.06 μM) in assay buffer and the resulting mixture was incubated for a reaction time of 30 min at 22° C.” left out, “[…].” for “0.003 μg/mL.”
as §3

## O=C1NCCN1CCOc1ccc2ncc(-c3cc4ccccc4o3)n2n1 [Example I-18, 1-(2-{[3-(1-Benzofuran-2-yl)imidazo[1,2-b]pyridazin-6-yl]oxy}ethyl)-imidazolidin-2-one]
MKNK1 [1]
  pIC50: 7.86
MKNK1 [2]
  pIC50: 8.15

## COc1cccc2oc(-c3cnc4ccc(OC[C@@H]5CCC(=O)N5)nn34)cc12 [Example I-19, (5S)-5-({[3-(4-Methoxy-1-benzofuran-2-yl)imidazo[1,2-b]pyridazin-6-yl]oxy}-methyl)pyrrolidin-2-one]
MKNK1 [1]
  pIC50: 7.81
MKNK1 [2]
  pIC50: 8.35

## COc1cccc2oc(-c3cnc4ccc(OC[C@H]5CN(C(=O)C(F)(F)F)CCO5)nn34)cc12 [Example I-20, 2,2,2-Trifluoro-1-[(2R)-2-({[3-(4-methoxy-1-benzofuran-2-yl)imidazo[1,2-b]-pyridazin-6-yl]oxy}methyl)morpholin-4-yl]ethanone]
MKNK1 [1]
  pIC50: 7.81
MKNK1 [2]
  pIC50: 8.11

## COc1cccc2oc(-c3cnc4ccc(OC[C@H]5CN(C(=O)C(C)(C)C)CCO5)nn34)cc12 [Example I-21, 1-[(2R)-2-({[3-(4-Methoxy-1-benzofuran-2-yl)imidazo[1,2-b]pyridazin-6-yl]-oxy}methyl)morpholin-4-yl]-2,2-dimethylpropan-1-one]
MKNK1 [1]
  pIC50: 7.75
MKNK1 [2]
  pIC50: 8.18

## O=C1CCCN1CCCOc1ccc2ncc(-c3cc4ccccc4o3)n2n1 [Example I-22, 1-(3-{[3-(1-Benzofuran-2-yl)imidazo[1,2-b]pyridazin-6-yl]oxy}propyl)pyrrolidin-2-one]
MKNK1 [1]
  pIC50: 7.73
MKNK1 [2]
  pIC50: 7.90

## O=C(N[C@H]1C[C@H](Oc2ccc3ncc(-c4cc5ccccc5o4)n3n2)C1)C(F)(F)F [Example I-23, N-(trans-3-{[3-(1-Benzofuran-2-yl)imidazo[1,2-b]pyridazin-6-yl]oxy}cyclobutyl)-2,2,2-trifluoroacetamide]
MKNK1 [1]
  pIC50: 7.73
MKNK1 [2]
  pIC50: 7.80

## NC(=O)COc1ccc2ncc(-c3cc4ccccc4o3)n2n1 [Example I-24, 2-{[3-(1-Benzofuran-2-yl)imidazo[1,2-b]pyridazin-6-yl]oxy}acetamide]
MKNK1 [1]
  pIC50: 7.68
MKNK1 [2]
  pIC50: 7.90

## CC(Oc1ccc2ncc(-c3cc4ccccc4o3)n2n1)C(N)=O (stereo not shown) [Example I-25, 2-{[3-(1-Benzofuran-2-yl)imidazo[1,2-b]pyridazin-6-yl]oxy}propanamide]
MKNK1 [1]
  pIC50: 7.68
MKNK1 [2]
  pIC50: 8.33

## O=C1CCC(CCOc2ccc3ncc(-c4cc5ccccc5o4)n3n2)N1 (stereo not shown) [Example I-26, 5-(2-{[3-(1-Benzofuran-2-yl)imidazo[1,2-b]pyridazin-6-yl]oxy}ethyl)pyrrolidin-2-one]
MKNK1 [1]
  pIC50: 7.64
MKNK1 [2]
  pIC50: 8.05

## CC(=O)N1CCOC(COc2ccc3ncc(-c4cc5ccccc5o4)n3n2)C1 (stereo not shown) [Example I-27, 1-[2-({[3-(1-Benzofuran-2-yl)imidazo[1,2-b]pyridazin-6-yl]oxy}methyl)-morpholin-4-yl]ethanone]
MKNK1 [1]
  pIC50: 7.63
MKNK1 [2]
  pIC50: 8.14

## CC(=O)NCCOc1ccc2ncc(-c3cc4ccccc4o3)n2n1 [Example I-28, N-(2-{[3-(1-Benzofuran-2-yl)imidazo[1,2-b]pyridazin-6-yl]oxy}ethyl)acetamide]
MKNK1 [1]
  pIC50: 7.53
MKNK1 [2]
  pIC50: 8.04

## O=C1CNC[C@@H](COc2ccc3ncc(-c4cc5ccccc5o4)n3n2)N1 [Example I-29, (6S)-6-({[3-(1-Benzofuran-2-yl)imidazo[1,2-b]pyridazin-6-yl]oxy}methyl)-piperazin-2-one]
MKNK1 [1]
  pIC50: 7.47
MKNK1 [2]
  pIC50: 7.88

## COCC(=O)NC[C@H](Oc1ccc2ncc(-c3cc4ccccc4o3)n2n1)c1cccnc1 [Example I-30, N-[(2R)-2-{[3-(1-Benzofuran-2-yl)imidazo[1,2-b]pyridazin-6-yl]oxy}-2-(pyridin-3-yl)ethyl]-2-methoxyacetamide]
MKNK1 [1]
  pIC50: 7.46
MKNK1 [2]
  pIC50: 7.99

## CC(=O)N1CCC[C@H]1CCOc1ccc2ncc(-c3cc4cc(Cl)ccc4o3)n2n1 [Example I-31, 1-[(2S)-2-(2-{[3-(5-Chloro-1-benzofuran-2-yl)imidazo[1,2-b]pyridazin-6-yl]oxy}ethyl)pyrrolidin-1-yl]ethanone]
MKNK1 [1]
  pIC50: 7.45
MKNK1 [2]
  pIC50: 7.78

## CN1C(=O)CC[C@H]1COc1ccc2ncc(-c3cc4ccccc4o3)n2n1 [Example I-32, (5S)-5-({[3-(1-Benzofuran-2-yl)imidazo[1,2-b]pyridazin-6-yl]oxy}methyl)-1-methylpyrrolidin-2-one]
MKNK1 [1]
  pIC50: 7.40
MKNK1 [2]
  pIC50: 7.86

## COc1ccc2oc(-c3cnc4ccc(OCCN5CCNC5=O)nn34)cc2c1 [Example I-33, 1-(2-{[3-(5-Methoxy-1-benzofuran-2-yl)imidazo[1,2-b]pyridazin-6-yl]oxy}ethyl)imidazolidin-2-one]
MKNK1 [1]
  pIC50: 7.39
MKNK1 [2]
  pIC50: 7.81

## CC(=O)NC(COc1ccc2ncc(-c3cc4ccccc4o3)n2n1)c1cccnc1 (stereo not shown) [Example I-34, N-[2-{[3-(1-Benzofuran-2-yl)imidazo[1,2-b]pyridazin-6-yl]oxy}-1-(pyridin-3-yl)ethyl]acetamide]
MKNK1 [1]
  pIC50: 7.35
MKNK1 [2]
  pIC50: 7.79

## CC(=O)NC[C@H](Oc1ccc2ncc(-c3cc4ccccc4o3)n2n1)c1cccnc1 [Example I-35, N-[(2R)-2-{[3-(1-Benzofuran-2-yl)imidazo[1,2-b]pyridazin-6-yl]oxy}-2-(pyridin-3-yl)ethyl]acetamide]
MKNK1 [1]
  pIC50: 7.32
MKNK1 [2]
  pIC50: 7.75

## CN(C)C(=O)COc1ccc2ncc(-c3cc4ccccc4o3)n2n1 [Example I-36, 2-{[3-(1-Benzofuran-2-yl)imidazo[1,2-b]pyridazin-6-yl]oxy}-N,N-dimethyl-acetamide]
MKNK1 [1]
  pIC50: 7.25
MKNK1 [2]
  pIC50: 7.82

## CC(C)(C)NC(=O)COc1ccc2ncc(-c3cc4ccccc4o3)n2n1 [Example I-37, 2-{[3-(1-Benzofuran-2-yl)imidazo[1,2-b]pyridazin-6-yl]oxy}-N-tert-butyl-acetamide]
MKNK1 [1]
  pIC50: 7.15
MKNK1 [2]
  pIC50: 7.77

## O=C1NCCC1Oc1ccc2ncc(-c3cc4ccccc4o3)n2n1 (stereo not shown) [Example I-38, 3-{[3-(1-Benzofuran-2-yl)imidazo[1,2-b]pyridazin-6-yl]oxy}pyrrolidin-2-one]
MKNK1 [1]
  pIC50: 7.14
MKNK1 [2]
  pIC50: 7.19

## NC(=O)C(Oc1ccc2ncc(-c3cc4ccccc4o3)n2n1)c1cccnc1 (stereo not shown) [Example I-39, 2-{[3-(1-Benzofuran-2-yl)imidazo[1,2-b]pyridazin-6-yl]oxy}-2-(pyridin-3-yl)acetamide]
MKNK1 [1]
  pIC50: 7.11
MKNK1 [2]
  pIC50: 7.26

## CC(C)(C)C(=O)N1CCC[C@H]1CCOc1ccc2ncc(-c3cc4cc(Cl)ccc4o3)n2n1 [Example I-40, 1-[(2S)-2-(2-{[3-(5-Chloro-1-benzofuran-2-yl)imidazo[1,2-b]pyridazin-6-yl]-oxy}ethyl)pyrrolidin-1-yl]-2,2-dimethylpropan-1-one]
MKNK1 [1]
  pIC50: 7.12
MKNK1 [2]
  pIC50: 7.59
